System: Ba/F3 EGFR-Del19/T790M/C797S cells
Experiment: Proliferation inhibitory activity against Ba/F3 EGFR-Del19/T790M/C797S cells (PrestoBlue method)
Format: cell-based, murine
Settings: Mus musculus, Ba/F3 cells stably expressing EGFR Del19/T790M/C797S, 72 hours
Protocol: The proliferation inhibitory activity of the compounds in vitro against the Ba/F3 EGFR-Del19/T790M/C797S cells from the murine pro B cell line Ba/F3 that stably express EGFR proteins with Del19/T790M/C797S triple mutations, is determined by the PrestoBlue method.
Cell source: Ba/F3 EGFR-Del19/T790M/C797S cells are purchased from Crown Bioscience (Beijing) Co., Ltd.
Ba/F3 EGFR-Del19/T790M/C797S cells are cultured in RPMI1640 complete medium containing 10% fetal calf serum. Take Ba/F3 EGFR-Del19/T790M/C797S cells in the logarithmic growth phase, inoculate them in a 96-well plate at a cell density of 5000 cells/135 μl complete culture medium/well, and place them at a constant temperature incubator containing 5% CO2 at 37° C. for culturing for 24 hours. […]
Take out the 96-well cell culture plate from the CO2 constant temperature incubator, add 15 μl of Invitrogen™ PrestoBlue™ HS cell viability detection reagent (Cat. No.: P50201) to each well, and continue to incubate for 3 hours in the constant temperature incubator containing 5% CO2 at 37° C. Take out the 96-well cell culture plate and measure the fluorescence at the 560 nm excitation wavelength and 590 nm emission wavelength of a microplate reader. […]
Data were analyzed using GraphPad Prism 8.3 software, and nonlinear S-curve regression was used to fit the data to obtain a dose-effect curve, from which the IC50 value was calculated.

Row | IC50 | SMILES
1 | 1860 nM | CN(C)CCN(C)c1nc(OCC(F)(F)F)c(Nc2nccc(-c3cn(C)c4ccccc34)n2)cc1NC(=O)CCN(C)CCN(C)c1nc(OCC(F)(F)F)c(Nc2nccc(-c3cn(C)c4ccccc34)n2)cc1N [Compound 1]
2 | 293 nM | C=CC(=O)Nc1cc(Nc2nccc(-c3cn(C)c4ccccc34)n2)c(OCC(F)(F)F)nc1N(C)CCN(C)CCC(=O)Nc1cc(Nc2nccc(-c3cn(C)c4ccccc34)n2)c(OCC(F)(F)F)nc1N(C)CCN(C)C [Compound 4]
